Literature values as cited in US9394312B1, “Ibrutinib prodrugs, pharmaceutical compositions thereof, and methods of use” (priority 2015, dated 2016).

Details: humans, combined with a meal versus fasted

- change of absolute bioavailability when combined with a meal: doubled
Structure (SMILES): C=CC(=O)N1CCC[C@@H](n2nc(-c3ccc(Oc4ccccc4)cc3)c3c(N)ncnc32)C1 [ibrutinib]
